Consider 15 compounds from PubChem BioAssay (NCI).

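Tested at 5 concentrations; 48 h exposure; 96-well plates; endpoints linearly interpolated, else capped at highest concentration. GI50 marks 50% less growth. At the TGI there is no net growth.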

Common to all, as to assay: growth of human tumour cells (NCI), 48 h
Assay [1] concerns KM12 colon.
Assay [2] has as its system M14 melanoma.
The test system of assay [3] is NCI-H460 lung.
For assay [4], the system named is NCI-H522 lung.
Assay [5] relates to NCI/ADR-RES ovarian.
The subject of assay [6] is RXF 393 renal.
In assay [7] the test system is SF-295 CNS.
Assay [8] concerns SK-MEL-28 melanoma.
In assay [9] the test system is SW-620 colon.
Assay [10] has as its system U251 CNS.

`COc1ccc(-c2nnc3n(C)c(=O)c4ccccc4n23)cc1O`: the GI50 in assay [1] was 0.152 µM; in assay [2], 0.127 µM; in [3] it was 0.172 µM; in assay [4], 0.0827 µM; in assay [5], 0.154 µM; in assay [6], 0.758 µM. The GI50 in assay [7] is 1.05 µM; in [8] it was 12.2 µM; in [9], 0.149 µM; in assay [10] it was 0.263 µM. Further, the TGI is greater than 100 µM in assay [1]; 25.9 µM in assay [2]; greater than 100 µM in [3]; 1.98 µM in assay [4]; 33.9 µM in assay [5]; 6.21 µM in assay [6]. In addition, the TGI in assay [7] is 13 µM; in [8], greater than 100 µM; in assay [9] it was greater than 100 µM; in assay [10], 20.8 µM.

As to `O=C(Cc1ccc(/C=C/C(=O)c2ncc[nH]2)cc1)Nc1ccc(Br)cc1`, the GI50 in [1] is 0.864 µM; in assay [2] it was 3.11 µM; in [3], 2.77 µM; in assay [4], 2.76 µM; in [5], 4.61 µM; in [6] it was 2.4 µM. In addition, the GI50 was 2.09 µM in [7], 3.07 µM in assay [8], 0.873 µM in [9] and 0.704 µM in assay [10]. For the same compound, the TGI in assay [1] was 3.13 µM; in [2] it was 7.83 µM; in assay [3], 8.66 µM; in [4] it was 7.34 µM; in assay [5], greater than 16.7 µM; in assay [6], 4.82 µM. Further, the TGI was 6.19 µM in [7], 6.65 µM in assay [8], 4.49 µM in assay [9] and 2.56 µM in assay [10].

`CC12C=CC(C)(O1)C1C2c2ccccc2S1(=O)=O` (stereo not given): the GI50 in [1] is greater than 100 µM; in assay [2], 25 µM; in assay [3] it was greater than 100 µM; in assay [4] it was 33.6 µM; in assay [5], greater than 100 µM; in [6], 0.637 µM. The GI50 was greater than 100 µM in assay [7], 91.9 µM in [8], 39.9 µM in assay [9] and greater than 100 µM in assay [10]. The TGI is greater than 100 µM in assay [1]; greater than 100 µM in assay [2]; greater than 100 µM in [3]; greater than 100 µM in assay [4]; greater than 100 µM in assay [5]; 36.9 µM in assay [6]. Also, the TGI in [7], in [8], in assay [9] and in [10] was greater than 100 µM throughout.

In the case of `COc1cc2c(cc1OCCCCCCNC(=O)c1cc3ccccc3[nH]1)N=CC1CCCN1C2=O` (stereo not given), the GI50 in [1] is 34.8 µM; in [2], 65.5 µM; in [3], 16.8 µM; in assay [4] it was 18.7 µM; in assay [5], 31.7 µM; in assay [6] it was 35.3 µM. For the same compound, the GI50 in assay [7] was 31.1 µM; in [8], greater than 100 µM; in [9] it was 38.6 µM; in assay [10], 40 µM. In addition, the TGI in assay [1] was greater than 100 µM; in assay [2] it was greater than 100 µM; in assay [3], 62.7 µM; in assay [4] it was 88.1 µM; in assay [5], greater than 100 µM; in assay [6] it was 54.6 µM. Further, the TGI in assay [7], in [8], in assay [9] and in assay [10] was greater than 100 µM each time.

Turning to `NC(=O)Nc1ccc2ncnc(Nc3ccc(Cl)cc3)c2c1`, the GI50 was 33.4 µM in [1]; 24.4 µM in assay [2]; 24.5 µM in assay [3]; 6.08 µM in assay [4]; 18.3 µM in assay [5]; 17 µM in assay [6]. Moreover, the GI50 in assay [7] is 19.2 µM; in [8], 30.2 µM; in assay [9] it was 42.8 µM; in assay [10] it was 25.4 µM. The TGI in assay [1] was greater than 100 µM; in assay [2] it was 68.6 µM; in assay [3], greater than 100 µM; in assay [4], 36 µM; in assay [5] it was greater than 81.5 µM; in assay [6], 83.6 µM. Besides, the TGI in assay [7] is greater than 67.4 µM; in assay [8] it was greater than 100 µM; in assay [9] it was greater than 100 µM; in assay [10], greater than 100 µM.

As for `N#Cc1cc2cc3c4c(c2oc1=O)CCCN4CCC3`, the TGI in assay [1], in assay [2], in assay [3], in [4], in [5] and in assay [6] was greater than 100 µM each time. Moreover, the TGI in assay [7], in assay [8], in assay [9] and in [10] was greater than 100 µM in each case.

With `Cc1c(N2C(=O)/C(=C\c3ccc(O)cc3)N=C2c2ccccc2)c(=O)n(-c2ccccc2)n1C`, the GI50 in assay [1], in assay [2], in assay [3], in [4], in assay [5] and in assay [6] was greater than 100 µM in each case. Moreover, the GI50 in assay [7], in [8], in assay [9] and in assay [10] was greater than 100 µM in each case. Further, the TGI in [1], in assay [2], in assay [3], in assay [4], in assay [5] and in assay [6] was greater than 100 µM in each case. In addition, the TGI in [7], in [8], in assay [9] and in [10] was greater than 100 µM in each case.

As for `O=C1C2C(C(=O)[N]1[Hg][c]1ccccc1)C1(Cl)C(Cl)=C(Cl)C2(Cl)C1(Cl)Cl` (stereo not given), the GI50 in assay [1] was 8.7 µM; in assay [2], 1.16 µM; in assay [3], 2.61 µM; in assay [4], 0.203 µM; in assay [5] it was 2.69 µM; in assay [6], 0.423 µM. For the same compound, the GI50 in assay [7] is 12.4 µM; in [8] it was 1.38 µM; in assay [9], 0.464 µM; in [10] it was 1.21 µM. Further, the TGI in assay [1] worked out at 21.5 µM; in assay [2], 2.43 µM; in [3], 12.4 µM; in [4], 0.531 µM; in assay [5], 8.97 µM; in [6] it was 1.59 µM. For the same compound, the TGI came out at 36 µM in assay [7], 2.73 µM in assay [8], 1.8 µM in assay [9] and 2.49 µM in assay [10].

Turning to `COC(=O)Nc1nc2c(OC)c(OC)c(OC)cc2[nH]1`, the GI50 is 5.48 µM in assay [1]; 8.9 µM in assay [2]; 14.6 µM in assay [3]; 13.3 µM in [4]; 8.91 µM in assay [5]; 18.4 µM in assay [6]. Also, the GI50 is 27.9 µM in assay [7], 52.4 µM in assay [8], 5.8 µM in [9] and 21.1 µM in assay [10]. Moreover, the TGI in assay [1] is greater than 100 µM; in assay [2] it was greater than 100 µM; in assay [3], greater than 100 µM; in assay [4], 58.1 µM; in assay [5], 97.6 µM; in assay [6], 66 µM. Moreover, the TGI in assay [7], in assay [8], in [9] and in assay [10] was greater than 100 µM throughout.

As for `O=C(Cc1ccccc1)Nc1nnc(CCSCCc2nnc(NC(=O)Cc3ccccc3)s2)s1`, the GI50 in assay [1] was 4.61 µM; in assay [2] it was 12.6 µM; in assay [3], 14.5 µM; in assay [4], 8.41 µM; in assay [5] it was greater than 100 µM; in [6] it was 17.9 µM. Further, the GI50 was 4.38 µM in [7], 13.2 µM in assay [8], greater than 100 µM in assay [9] and 4.1 µM in assay [10]. Moreover, the TGI is greater than 100 µM in assay [1]; greater than 100 µM in assay [2]; greater than 100 µM in assay [3]; greater than 100 µM in [4]; greater than 100 µM in [5]; 68.9 µM in assay [6]. Moreover, the TGI was 36.6 µM in assay [7], greater than 100 µM in assay [8], greater than 100 µM in assay [9] and 18.3 µM in [10].

With `c1ccc(Cn2cc3c(c2)-c2oncc2CC3)cc1`, the GI50 is 0.521 µM in assay [1]; 0.528 µM in assay [2]; 0.402 µM in assay [3]; 1.89 µM in assay [4]; 0.554 µM in [5]; 1.12 µM in [6]. Besides, the GI50 in assay [7] is 0.818 µM; in [8], 4.27 µM; in [9], 0.428 µM; in assay [10] it was 0.552 µM. Further, the TGI in assay [1] is 9.2 µM; in [2], greater than 100 µM; in assay [3], 7.5 µM; in assay [4], 8.13 µM; in assay [5] it was 7.22 µM; in [6], 4.76 µM. For the same compound, the TGI in assay [7] is greater than 20.6 µM; in assay [8], greater than 100 µM; in assay [9] it was greater than 100 µM; in assay [10], 33 µM.

As for `Cc1cc[c-]cc1.Fc1c[c-]c(-c2ccccn2)c(F)c1.N#CCC[PH+](CCC#N)c1ccccc1.[Pt+2]`, the GI50 in assay [1] is 3.39 µM; in [2] it was 2.94 µM; in [3], 3.05 µM; in assay [4], 1.96 µM; in assay [5], 4.24 µM; in [6] it was 2.07 µM. The GI50 in [7] is 3.91 µM; in assay [8], 2.18 µM; in assay [9], 2.25 µM; in assay [10] it was 3.61 µM. Moreover, the TGI in assay [1] came out at 13.2 µM; in [2] it was 10.9 µM; in assay [3], 10.1 µM; in assay [4] it was 5.58 µM; in assay [5], 52.8 µM; in [6] it was 4.78 µM. The TGI was determined as 29.8 µM in assay [7], 4.84 µM in assay [8], 5.35 µM in assay [9] and 15.4 µM in assay [10].

For the compound `COc1ccc(/C=C/c2nc(N3CCOCC3)c3cc(F)c(F)cc3n2)cc1OC`, the GI50 in assay [1] was 4.59 µM; in [2] it was 2.75 µM; in assay [3] it was 5.86 µM; in assay [4], 6.86 µM; in [5] it was 4.09 µM; in assay [6] it was 5.06 µM. Besides, the GI50 was 3.9 µM in [7], 5.53 µM in [8], 6.1 µM in assay [9] and 5.9 µM in assay [10]. The TGI in [1] is greater than 100 µM; in [2], 26.8 µM; in assay [3], greater than 100 µM; in assay [4], greater than 100 µM; in assay [5], greater than 100 µM; in [6] it was greater than 100 µM. Besides, the TGI in assay [7], in assay [8], in assay [9] and in [10] was greater than 100 µM each time.

As to `COc1cc(C(=O)/C=C/c2c(-c3ccc(F)cc3)nc3sccn23)cc(OC)c1OC`, the GI50 in assay [1] is 2.24 µM; in [2] it was 2.33 µM; in assay [3] it was 1.95 µM; in assay [4], 4.2 µM; in assay [5], 2.05 µM; in [6], 0.945 µM. Further, the GI50 in assay [7] is 2.37 µM; in assay [8] it was 4.84 µM; in assay [9], 2.92 µM; in [10], 2.41 µM. Besides, the TGI in assay [1] was 6.27 µM; in assay [2], 9.44 µM; in [3], 4.51 µM; in [4] it was greater than 26.2 µM; in [5], 6.28 µM; in assay [6], 4.23 µM. The TGI in [7] was 10.6 µM; in assay [8] it was 17.2 µM; in [9], 11.2 µM; in [10], 9.23 µM.

Consider `Cn1cc(-c2csc(-c3cn(CCN4CCOCC4)c4ccc(F)cc34)n2)c2cccnc21`, for which the GI50 in assay [1] was 2.85 µM; in assay [2], 2.09 µM; in [3] it was 3.39 µM; in [4], 2.11 µM; in assay [5], 2.36 µM; in assay [6], 2.58 µM. In addition, the GI50 was 2.35 µM in [7], 3.01 µM in assay [8], 3.62 µM in [9] and 3.35 µM in assay [10]. Further, the TGI in assay [1] was 11.1 µM; in assay [2], 4.89 µM; in [3] it was greater than 100 µM; in assay [4], 6.63 µM; in [5], 8.15 µM; in [6], 7.23 µM. The TGI in assay [7] was found to be 7.15 µM; in assay [8], 12.3 µM; in assay [9] it was 57.5 µM; in [10], 22.2 µM.
